Measured values as given in patent publication US20090304692A1, “TRIAZINE COMPOUNDS AS PI3 KINASE AND MTOR INHIBITORS” (Wyeth, priority 2008, published 2009).
pIC50: −log10 of the molar value. Several values for one entry are separate records, joined by “and”; a condition that tells them apart may be missing. Identical values can stand only once. Like-named read-outs stand apart in the source and are kept apart here.

Legend:
Human mTOR (FLAG-TOR) = Human mTOR (FLAG-TOR) (Homo sapiens, UniProt P42345); assay: mTOR kinase assay (DELFIA format, purified enzyme); assay type: biochemical; settings: read-out: IC50 mTOR
[1] = tested on: human breast MDA-MB-361 tumor cell line; assay: In vitro cell culture growth assay (MTS), MDA-MB-361; assay type: cell-based; settings: Homo sapiens, MDA-MB-361, 72 h; MTS cell growth assay, three days after drug treatment; read-out: IC50 MDA-MB-361
PI3K-γ = PI3K-γ (Homo sapiens, UniProt P48736); assay: PI3K-gamma fluorescence polarization assay; settings: read-out: IC50 PI3Kγ
[2] = tested on: human prostate LNCap tumor cell line; assay: In vitro cell culture growth assay (MTS), LNCap; settings: Homo sapiens, LNCaP, 72 h, read-out: IC50 LNCap
[3] = tested on: human prostate PC3-mm2 tumor cell line; assay: In vitro cell culture growth assay (MTS), PC3-mm2; assay type: cell-based; settings: Homo sapiens, PC3MM2, 72 h, MTS cell growth assay, three days after drug treatment, read-out: IC50 PC3-mm2
PI3K-α = PI3K-α (Homo sapiens, UniProt P42336); assay: PI3K-alpha fluorescence polarization assay; settings: read-out: IC50 PI3Kα
human SMG-1 (hSMG-1) = human SMG-1 (hSMG-1) (Homo sapiens, UniProt Q96Q15); assay: hSMG-1 kinase assay (DELFIA); assay type: biochemical
Sequence of human SMG-1 (hSMG-1) (Q96Q15 whole entry): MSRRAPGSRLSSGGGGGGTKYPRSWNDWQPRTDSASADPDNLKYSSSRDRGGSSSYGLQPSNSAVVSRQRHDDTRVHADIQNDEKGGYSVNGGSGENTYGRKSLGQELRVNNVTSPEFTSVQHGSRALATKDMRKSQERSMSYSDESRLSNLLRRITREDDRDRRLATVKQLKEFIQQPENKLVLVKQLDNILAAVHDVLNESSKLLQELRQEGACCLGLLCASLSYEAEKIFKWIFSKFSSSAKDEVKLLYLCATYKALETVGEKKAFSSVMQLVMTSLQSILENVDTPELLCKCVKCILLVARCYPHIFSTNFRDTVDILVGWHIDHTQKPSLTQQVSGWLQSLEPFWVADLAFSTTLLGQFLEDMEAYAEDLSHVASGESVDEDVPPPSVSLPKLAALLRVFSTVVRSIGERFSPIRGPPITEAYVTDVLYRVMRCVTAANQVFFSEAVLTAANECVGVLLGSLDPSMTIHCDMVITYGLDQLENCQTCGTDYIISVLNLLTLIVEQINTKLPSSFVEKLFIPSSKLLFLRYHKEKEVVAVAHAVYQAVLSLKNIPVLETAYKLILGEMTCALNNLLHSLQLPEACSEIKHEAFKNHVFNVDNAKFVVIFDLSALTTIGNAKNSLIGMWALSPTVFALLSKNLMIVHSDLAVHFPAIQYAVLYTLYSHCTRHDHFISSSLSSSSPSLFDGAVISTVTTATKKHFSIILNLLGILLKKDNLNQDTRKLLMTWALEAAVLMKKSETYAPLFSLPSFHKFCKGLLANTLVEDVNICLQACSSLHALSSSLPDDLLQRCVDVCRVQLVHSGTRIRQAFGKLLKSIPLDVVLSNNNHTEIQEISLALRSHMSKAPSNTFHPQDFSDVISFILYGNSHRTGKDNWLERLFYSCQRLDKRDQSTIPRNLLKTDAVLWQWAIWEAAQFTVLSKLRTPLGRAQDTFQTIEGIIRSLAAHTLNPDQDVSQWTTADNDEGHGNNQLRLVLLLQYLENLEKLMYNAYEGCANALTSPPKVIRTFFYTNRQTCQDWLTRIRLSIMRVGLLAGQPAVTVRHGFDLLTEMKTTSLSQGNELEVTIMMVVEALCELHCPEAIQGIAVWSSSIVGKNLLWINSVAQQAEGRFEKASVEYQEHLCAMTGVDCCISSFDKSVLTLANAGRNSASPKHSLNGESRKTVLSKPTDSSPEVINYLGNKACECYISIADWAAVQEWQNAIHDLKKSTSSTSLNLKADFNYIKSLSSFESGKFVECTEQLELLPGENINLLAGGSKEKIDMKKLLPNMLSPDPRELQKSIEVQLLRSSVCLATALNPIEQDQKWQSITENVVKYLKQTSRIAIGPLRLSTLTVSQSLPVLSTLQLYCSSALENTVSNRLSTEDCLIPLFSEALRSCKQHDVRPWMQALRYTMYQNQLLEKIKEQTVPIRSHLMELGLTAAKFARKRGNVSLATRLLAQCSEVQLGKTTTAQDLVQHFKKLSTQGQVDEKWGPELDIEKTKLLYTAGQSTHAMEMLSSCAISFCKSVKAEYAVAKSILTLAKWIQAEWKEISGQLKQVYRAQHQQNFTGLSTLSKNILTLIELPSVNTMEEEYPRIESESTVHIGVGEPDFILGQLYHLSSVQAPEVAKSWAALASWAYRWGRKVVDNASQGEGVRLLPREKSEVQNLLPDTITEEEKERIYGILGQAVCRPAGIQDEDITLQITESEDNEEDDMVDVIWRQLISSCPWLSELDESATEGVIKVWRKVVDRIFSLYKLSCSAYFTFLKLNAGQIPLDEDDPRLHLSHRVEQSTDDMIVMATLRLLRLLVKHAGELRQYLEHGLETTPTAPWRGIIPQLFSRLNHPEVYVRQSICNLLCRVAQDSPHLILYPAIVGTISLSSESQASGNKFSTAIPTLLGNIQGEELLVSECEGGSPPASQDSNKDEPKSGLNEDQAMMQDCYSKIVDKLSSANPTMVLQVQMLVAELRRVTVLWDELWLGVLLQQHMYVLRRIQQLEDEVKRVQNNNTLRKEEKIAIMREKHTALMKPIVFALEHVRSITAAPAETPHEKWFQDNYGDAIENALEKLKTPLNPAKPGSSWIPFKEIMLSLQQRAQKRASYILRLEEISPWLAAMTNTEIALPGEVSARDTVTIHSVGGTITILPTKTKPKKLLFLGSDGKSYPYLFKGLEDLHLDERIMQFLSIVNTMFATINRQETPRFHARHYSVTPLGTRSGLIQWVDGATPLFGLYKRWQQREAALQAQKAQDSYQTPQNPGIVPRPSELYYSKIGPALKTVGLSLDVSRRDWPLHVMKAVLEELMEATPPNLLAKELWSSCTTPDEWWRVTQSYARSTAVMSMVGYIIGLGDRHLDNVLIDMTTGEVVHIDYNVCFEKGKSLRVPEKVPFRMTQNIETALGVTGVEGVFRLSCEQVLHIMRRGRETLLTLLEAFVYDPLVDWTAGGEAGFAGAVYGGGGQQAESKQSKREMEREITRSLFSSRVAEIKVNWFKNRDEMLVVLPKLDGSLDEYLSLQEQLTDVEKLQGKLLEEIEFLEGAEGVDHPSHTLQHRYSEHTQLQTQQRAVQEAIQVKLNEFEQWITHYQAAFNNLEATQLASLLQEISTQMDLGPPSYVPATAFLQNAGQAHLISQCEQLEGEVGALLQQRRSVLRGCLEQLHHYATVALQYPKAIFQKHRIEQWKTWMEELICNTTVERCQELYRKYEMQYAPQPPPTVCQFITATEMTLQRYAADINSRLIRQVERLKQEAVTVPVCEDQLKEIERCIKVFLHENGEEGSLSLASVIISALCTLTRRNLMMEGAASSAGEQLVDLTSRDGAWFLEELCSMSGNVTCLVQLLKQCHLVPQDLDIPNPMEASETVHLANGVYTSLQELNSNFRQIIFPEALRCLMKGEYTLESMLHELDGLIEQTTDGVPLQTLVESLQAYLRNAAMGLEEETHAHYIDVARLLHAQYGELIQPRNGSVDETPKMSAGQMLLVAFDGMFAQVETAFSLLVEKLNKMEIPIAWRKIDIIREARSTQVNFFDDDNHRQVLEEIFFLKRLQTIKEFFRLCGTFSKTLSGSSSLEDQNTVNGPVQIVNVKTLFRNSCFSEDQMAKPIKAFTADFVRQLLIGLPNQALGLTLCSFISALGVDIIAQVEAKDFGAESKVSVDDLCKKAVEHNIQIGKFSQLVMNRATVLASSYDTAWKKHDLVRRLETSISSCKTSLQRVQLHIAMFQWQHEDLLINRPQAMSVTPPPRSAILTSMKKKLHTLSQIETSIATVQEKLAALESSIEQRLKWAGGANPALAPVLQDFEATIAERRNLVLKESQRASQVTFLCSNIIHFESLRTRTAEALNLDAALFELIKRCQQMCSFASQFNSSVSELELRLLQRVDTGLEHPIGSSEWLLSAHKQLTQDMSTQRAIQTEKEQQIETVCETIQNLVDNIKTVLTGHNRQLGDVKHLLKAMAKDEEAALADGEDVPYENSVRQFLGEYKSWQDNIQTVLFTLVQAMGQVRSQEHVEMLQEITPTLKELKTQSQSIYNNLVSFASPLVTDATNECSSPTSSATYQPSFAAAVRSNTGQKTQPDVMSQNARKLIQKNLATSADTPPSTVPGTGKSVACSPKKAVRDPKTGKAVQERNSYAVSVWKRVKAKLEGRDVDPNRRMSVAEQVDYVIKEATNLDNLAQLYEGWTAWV

Sequence of PI3K-γ (P48736 whole entry, species assumed): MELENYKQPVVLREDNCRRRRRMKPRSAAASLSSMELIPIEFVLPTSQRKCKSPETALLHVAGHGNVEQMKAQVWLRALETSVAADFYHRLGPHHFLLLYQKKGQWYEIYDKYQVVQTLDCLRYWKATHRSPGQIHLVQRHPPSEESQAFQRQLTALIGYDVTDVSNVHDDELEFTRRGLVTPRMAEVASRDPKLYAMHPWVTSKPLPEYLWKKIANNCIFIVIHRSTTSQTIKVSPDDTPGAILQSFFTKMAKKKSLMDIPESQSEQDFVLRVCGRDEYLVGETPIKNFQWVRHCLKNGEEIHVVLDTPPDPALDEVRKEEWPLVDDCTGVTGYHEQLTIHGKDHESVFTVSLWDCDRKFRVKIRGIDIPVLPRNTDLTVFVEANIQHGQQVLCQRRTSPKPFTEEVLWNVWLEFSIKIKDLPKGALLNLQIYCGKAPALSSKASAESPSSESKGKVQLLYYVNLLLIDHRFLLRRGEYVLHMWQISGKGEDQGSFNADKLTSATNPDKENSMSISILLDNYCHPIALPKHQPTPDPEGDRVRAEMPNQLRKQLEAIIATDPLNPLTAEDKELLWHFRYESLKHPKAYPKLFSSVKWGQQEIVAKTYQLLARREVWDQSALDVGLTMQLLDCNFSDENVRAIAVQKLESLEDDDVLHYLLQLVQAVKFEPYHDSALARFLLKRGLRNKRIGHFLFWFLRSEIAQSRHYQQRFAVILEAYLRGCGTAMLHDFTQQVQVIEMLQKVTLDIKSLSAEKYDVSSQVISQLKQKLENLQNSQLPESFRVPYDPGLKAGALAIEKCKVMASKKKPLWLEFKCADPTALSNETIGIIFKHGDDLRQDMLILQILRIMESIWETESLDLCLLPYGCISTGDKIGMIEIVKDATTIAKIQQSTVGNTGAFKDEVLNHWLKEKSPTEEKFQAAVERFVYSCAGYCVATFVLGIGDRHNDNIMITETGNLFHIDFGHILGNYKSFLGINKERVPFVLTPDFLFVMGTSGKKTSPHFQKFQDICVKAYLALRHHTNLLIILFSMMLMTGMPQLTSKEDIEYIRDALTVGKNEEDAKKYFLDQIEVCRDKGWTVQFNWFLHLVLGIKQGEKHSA

SMILES	pIC50 (Human mTOR (FLAG-TOR))	pIC50 [1]	pIC50 (PI3K-γ)	pIC50 [2]	pIC50 [3]	pIC50 (PI3K-α)	pIC50 (PI3K-γ; listed as 728)	pIC50 ([3]; PC3-mm2 cells)	pIC50 (PI3K-α; listed as 728)	pIC50 (human SMG-1 (hSMG-1))
O=C(Nc1ccncc1)Nc1ccc(-c2nc(C3CCOCC3)nc(N3CCOCC3)n2)cc1 [Example 101, 1-{4-[4-Morpholin-4-yl-6-(tetrahydro-pyran-4-yl)-[1,3,5]triazin-2-yl]-phenyl}-3-pyridin-4-yl-urea]	9.36	7.49	7.48	8.52	7.43	8.22				
O=C(Nc1ccncc1)Nc1ccc(-c2nc(N3CCOCC3)nc(N3C(CO)CCC3CO)n2)cc1 (stereo not shown) [Example 268, 1-(4-{4-[2,5-bis(hydroxymethyl)pyrrolidin-1-yl]-6-morpholin-4-yl-1,3,5-triazin-2-yl}phenyl)-3-pyridin-4-ylurea]	9.41 and 9.42	7.23	7.39	7.42	6.97	7.92	7.33	6.97	7.98	
C[C@@H]1COCCN1c1nc(-c2ccc(NC(=O)Nc3ccc(C(=O)N4CCN(C)CC4)cc3)cc2)nc(N2CCOC[C@H]2C)n1 [Example 450, 1-(4-(4,6-bis((R)-3-methylmorpholino)-1,3,5-triazin-2-yl)phenyl)-3-(4-(4-methylpiperazine-1-carbonyl)phenyl)urea]	8.77		6.05	> 9.10		7.12				
CC(C)N1CCN(C(=O)c2ccc(NC(=O)Nc3ccc(-c4nc(N5CCOC[C@H]5C)nc(N5CCOC[C@H]5C)n4)cc3)cc2)CC1 [Example 451, 1-(4-(4,6-bis((R)-3-methylmorpholino)-1,3,5-triazin-2-yl)phenyl)-3-(4-(4-isopropylpiperazine-1-carbonyl)phenyl)urea]	8.85		6.15	> 9.10		7.07				
C[C@@H]1COCCN1c1nc(-c2ccc(NC(=O)Nc3ccc(C(=O)N(C)C)cc3)cc2)nc(N2CCOC[C@H]2C)n1 [Example 452, 4-(3-(4-(4,6-bis((R)-3-methylmorpholino)-1,3,5-triazin-2-yl)phenyl)ureido)-N,N-dimethylbenzamide]	9.26		6.30	> 9.10		7.39				
C[C@@H]1COCCN1c1nc(-c2ccc(NC(=O)Nc3ccc(CN4CCCC4)cc3)cc2)nc(N2CCOC[C@H]2C)n1 [Example 453, 1-(4-(4,6-bis((R)-3-methylmorpholino)-1,3,5-triazin-2-yl)phenyl)-3-(4-(pyrrolidin-1-ylmethyl)phenyl)urea]	8.48		5.37	7.52		6.18				
NC(=O)c1ccc(NC(=O)Nc2ccc(-c3nc(C4CCOCC4)nc(N4C5CCC4COC5)n3)cc2)cc1 [Example 454, 4-(3-(4-(4-(3-oxa-8-azabicyclo[3.2.1]octan-8-yl)-6-(tetrahydro-2H-pyran-4-yl)-1,3,5-triazin-2-yl)phenyl)ureido)benzamide]	9.70		5.83	> 9.10		6.56				
CN(C)C(=O)c1ccc(NC(=O)Nc2ccc(-c3nc(C4CCOCC4)nc(N4C5CCC4COC5)n3)cc2)cc1 [Example 455, 4-(3-(4-(4-(3-oxa-8-azabicyclo[3.2.1]octan-8-yl)-6-(tetrahydro-2H-pyran-4-yl)-1,3,5-triazin-2-yl)phenyl)ureido)-N,N-dimethylbenzamide]	9.52		5.86	> 9.10		6.95				
O=C(Nc1ccc(C(=O)N2CCCC2)cc1)Nc1ccc(-c2nc(C3CCOCC3)nc(N3C4CCC3COC4)n2)cc1 [Example 456, 1-(4-(4-(3-oxa-8-azabicyclo[3.2.1]octan-8-yl)-6-(tetrahydro-2H-pyran-4-yl)-1,3,5-triazin-2-yl)phenyl)-3-(4-(pyrrolidine-1-carbonyl)phenyl)urea]	9.15		5.81	> 9.10		6.82				
CNCCNC(=O)c1ccc(NC(=O)Nc2ccc(-c3nc(C4CCOCC4)nc(N4C5CCC4COC5)n3)cc2)cc1 [Example 458, 4-(3-(4-(4-(3-oxa-8-azabicyclo[3.2.1]octan-8-yl)-6-(tetrahydro-2H-pyran-4-yl)-1,3,5-triazin-2-yl)phenyl)ureido)-N-(2-(methylamino)ethyl)benzamide]	9.70		6.29	8.10		7.48				
CN(C)CCN(C)C(=O)c1ccc(NC(=O)Nc2ccc(-c3nc(C4CCOCC4)nc(N4C5CCC4COC5)n3)cc2)cc1 [Example 459, 4-(3-(4-(4-(3-oxa-8-azabicyclo[3.2.1]octan-8-yl)-6-(tetrahydro-2H-pyran-4-yl)-1,3,5-triazin-2-yl)phenyl)ureido)-N-(2-(dimethylamino)ethyl)-N-methylbenzamide]	9.52		6.32	> 9.10		7.59				
O=C(Nc1ccc(C(=O)N2CCOCC2)cc1)Nc1ccc(-c2nc(C3CCOCC3)nc(N3C4CCC3COC4)n2)cc1 [Example 460, 1-(4-(4-(3-oxa-8-azabicyclo[3.2.1]octan-8-yl)-6-(tetrahydro-2H-pyran-4-yl)-1,3,5-triazin-2-yl)phenyl)-3-(4-(morpholine-4-carbonyl)phenyl)urea]	9.40		5.97	> 9.10		6.84				
NCCNc1ccc(NC(=O)Nc2ccc(-c3nc(N4C5CCC4COC5)nc(N4C5CCC4COC5)n3)cc2)cc1 [Example 461, 1-(4-(2-aminoethylamino)phenyl)-3-(4-(4,6-di(3-oxa-8-azabicyclo[3.2.1]octan-8-yl)-1,3,5-triazin-2-yl)phenyl)urea]	8.96		5.36	7.17		6.32				
CNC(=O)Nc1ccc(-c2nc(-c3ccc(NC(=O)Nc4cccnc4)cc3)nc(N3C(C)COCC3C)n2)cc1 (stereo not shown) [Example 463, 1-{4-[4-(3,5-dimethylmorpholin-4-yl)-6-{4-[(methylcarbamoyl)amino]phenyl}-1,3,5-triazin-2-yl]phenyl}-3-pyridin-3-ylurea]	7.77									6.29
CNC(=O)Nc1ccc(-c2nc(-c3ccc(NC(=O)Nc4ccc(C(N)=O)cc4)cc3)nc(N3CC4CCC(C3)O4)n2)cc1 [Example 464, 4-[({4-[4-{4-[(methylcarbamoyl)amino]phenyl}-6-(8-oxa-3-azabicyclo[3.2.1]oct-3-yl)-1,3,5-triazin-2-yl]phenyl}carbamoyl)amino]benzamide]	9.00									8.52
CNC(=O)Nc1ccc(-c2nc(-c3ccc(NC(=O)Nc4cccc(C(N)=O)c4)cc3)nc(N3CC4CCC(C3)O4)n2)cc1 [Example 465, 3-[({4-[4-{4-[(methylcarbamoyl)amino]phenyl}-6-(8-oxa-3-azabicyclo[3.2.1]oct-3-yl)-1,3,5-triazin-2-yl]phenyl}carbamoyl)amino]benzamide]	9.00									8.30
O=C(Nc1ccc(-c2nc(N3CCOCC3)nc(N3CCOCC3)n2)cc1)C(F)F [Example 473, N-[4-(4,6-dimorpholin-4-yl-1,3,5-triazin-2-yl)phenyl]-2,2-difluoroacetamide]	7.46									5.44
c1cc(-c2nc(N3CCOCC3)nc(N3CCOCC3)n2)ccc1NC1=NCCN1 [Example 474, N-[4-(4,6-dimorpholin-4-yl-1,3,5-triazin-2-yl)phenyl]-4,5-dihydro-1H-imidazol-2-amine]	7.32									5.25
CC(C)c1nc(-c2ccc(NC(=O)Nc3ccc(-c4ccncc4)cc3)cc2)nc(N2CCOCC2)n1 [Example 489, 1-{4-[4-(1-methylethyl)-6-morpholin-4-yl-1,3,5-triazin-2-yl]phenyl}-3-(4-pyridin-4-ylphenyl)urea]	8.66		5.04	5.37		5.44				
CN1CCN(CC(=O)Nc2ccc(NC(=O)Nc3ccc(-c4nc(N5CC6CCC(C5)O6)nc(N5CC6CCC(C5)O6)n4)cc3)cc2)CC1 [Example 509, N-[4-({[4-(4,6-di-8-oxa-3-azabicyclo[3.2.1]oct-3-yl-1,3,5-triazin-2-yl)phenyl]carbamoyl}amino)phenyl]-2-(4-methylpiperazin-1-yl)acetamide]	9.35		6.18	> 9.10		7.94				
O=C(Nc1ccncc1)Nc1ccc(-c2nc(N3CC4CCC(C3)O4)nc(N3[C@H](CO)CC[C@@H]3CO)n2)cc1 [Example 667, 1-(4-{4-[(2R,5S)-2,5-bis(hydroxymethyl)pyrrolidin-1-yl]-6-(8-oxa-3-azabicyclo[3.2.1]oct-3-yl)-1,3,5-triazin-2-yl}phenyl)-3-pyridin-4-ylurea]	9.39		5.97	7.22		6.99				
CN1CCN(c2ccc(NC(=O)Nc3ccc(-c4nc(N5CC6CCC(C5)O6)nc(N5[C@H](CO)CC[C@@H]5CO)n4)cc3)cc2)CC1 [Example 668, 1-(4-{4-[(2R,5S)-2,5-bis(hydroxymethyl)pyrrolidin-1-yl]-6-(8-oxa-3-azabicyclo[3.2.1]oct-3-yl)-1,3,5-triazin-2-yl}phenyl)-3-[4-(4-methylpiperazin-1-yl)phenyl]urea]	9.25		6.20	9.10		6.91				
